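The compound was tested at five concentrations on cells cultured in 96-well plates, with a 48-hour exposure period. GI50 marks 50% less growth. TGI: concentration producing complete growth inhibition.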
Columns and labels:
Experiment in all cases: inhibition of tumour cell growth, NCI panel, 48 h
[1] = system: K-562 leukemia
[2] = system: KM12 colon
[3] = system: MCF7 breast
[4] = system: PC-3 prostate
[5] = system: SNB-19 CNS
[6] = system: U251 CNS
[7] = system: UACC-257 melanoma
[8] = system: EKVX NSCLC
[9] = system: RPMI-8226 leukemia
[10] = system: SF-539 CNS

Row | Compound | TGI [1] | TGI [2] | TGI [3] | TGI [4] | TGI [5] | TGI [6] | TGI [7] | TGI [8] | TGI [9] | TGI [10] | GI50 [8] | GI50 [1] | GI50 [2] | GI50 [3] | GI50 [4] | GI50 [9] | GI50 [5] | GI50 [6] | GI50 [7]
1 | CS(=O)(=O)OCC(CCl)(CCl)CCl | > 100 µM | > 100 µM | > 100 µM | > 100 µM | > 100 µM | > 100 µM | > 100 µM | – | – | – | – | – | – | – | – | – | – | – | –
2 | CCOC(=O)C1=C(C)C2C=C(c3cccs3)CC(c3ccc(Cl)cc3)=C2OC1=O (stereo not drawn) | 34.4 µM | 39.8 µM | > 100 µM | > 100 µM | > 100 µM | > 100 µM | > 100 µM | > 100 µM | 38 µM | – | – | – | – | – | – | – | – | – | –
3 | COc1cccc(CCCNC(=O)Cc2cc(OC)c(OC)cc2CO)c1 | > 100 µM | > 100 µM | – | > 100 µM | > 100 µM | > 100 µM | > 100 µM | > 100 µM | – | – | – | – | – | – | – | – | – | – | –
4 | COc1ccc2c(c1)OCC1Cc3ccccc3OC21 (stereo not drawn) | > 100 µM | > 100 µM | > 100 µM | > 100 µM | – | > 10 µM | > 100 µM | > 100 µM | > 100 µM | > 100 µM | – | – | – | – | – | – | – | – | –
5 | CCCSCC(P(=O)(O)O)P(=O)(O)O | > 100 µM | > 100 µM | > 100 µM | – | > 100 µM | > 100 µM | > 100 µM | > 100 µM | > 100 µM | > 100 µM | – | – | – | – | – | – | – | – | –
6 | CCCC(=O)OC1CC(n2cc(F)c(=O)[nH]c2=O)OC1COP(=O)(OCC(Cl)(Cl)Cl)OCC(Cl)(Cl)Cl (stereo not drawn) | – | > 100 µM | > 100 µM | > 100 µM | > 100 µM | > 78.8 µM | > 92 µM | > 100 µM | 86.4 µM | – | – | – | – | – | – | – | – | – | –
7 | O=[N+]([O-])C(/C=C(\Cl)n1nnc2ccccc21)=C(/Cl)n1nnc2ccccc21 | > 100 µM | > 100 µM | – | > 100 µM | > 100 µM | > 100 µM | > 100 µM | > 100 µM | > 100 µM | > 100 µM | – | – | – | – | – | – | – | – | –
8 | Oc1ccc([I+]c2ccccc2)cc1O | 54.3 µM | 70.7 µM | – | 64.1 µM | > 100 µM | > 100 µM | > 100 µM | > 100 µM | 61.4 µM | 91.2 µM | – | – | – | – | – | – | – | – | –
9 | CCC1(CC)C(=O)NN(C(=O)c2ccccc2)C1=O | > 100 µM | > 100 µM | > 100 µM | > 100 µM | > 100 µM | > 100 µM | > 100 µM | > 100 µM | > 100 µM | – | – | – | – | – | – | – | – | – | –
10 | O=c1c2sc(=S)n(-c3ccc(F)cc3)c2ncn1/N=C/c1ccc(F)cc1F | > 100 µM | > 100 µM | > 100 µM | > 100 µM | 62.6 µM | 52 µM | > 100 µM | 39.2 µM | > 100 µM | – | – | – | – | – | – | – | – | – | –
11 | CSc1nsc(-c2ccccc2)[s+]1 | > 100 µM | > 100 µM | – | – | > 100 µM | > 100 µM | > 100 µM | > 100 µM | > 100 µM | > 100 µM | – | – | – | – | – | – | – | – | –
12 | COc1ccc2c(C)cc(=O)oc2c1OC | > 100 µM | > 100 µM | > 100 µM | > 100 µM | > 100 µM | > 100 µM | > 100 µM | > 100 µM | > 100 µM | – | – | – | – | – | – | – | – | – | –
13 | CC1=NS(=O)(=O)c2ccccc2N1 | > 100 µM | > 100 µM | – | – | > 100 µM | > 100 µM | > 100 µM | > 100 µM | – | > 100 µM | – | – | – | – | – | – | – | – | –
14 | Cc1cc(C(=O)CCCCOc2ccc(C3=NCCO3)cc2)c(C)n1C | > 100 µM | > 100 µM | > 100 µM | 59.7 µM | > 100 µM | > 100 µM | > 100 µM | > 100 µM | 62.4 µM | – | – | – | – | – | – | – | – | – | –
15 | CC1=NN(c2cccc(Cl)c2)C2(SCC(=O)N2c2nc3ccccc3s2)/C1=C\c1ccccc1O (stereo not drawn) | > 100 µM | 45.1 µM | > 100 µM | 61.1 µM | – | 53.5 µM | > 100 µM | > 100 µM | 40.3 µM | > 100 µM | – | – | – | – | – | – | – | – | –
16 | COc1cc(NS(C)(=O)=O)ccc1Nc1cc(C)[nH]c2ccc3nccc3c12 | > 100 µM | > 100 µM | > 100 µM | > 100 µM | > 100 µM | > 100 µM | > 100 µM | > 100 µM | > 100 µM | – | – | – | – | – | – | – | – | – | –
17 | CO[C@H]1/C=C(/C)CCC[C@H](C)[C@H](O)[C@@H](C)C(=O)C(C)(C)[C@@H](O)CC(=O)O[C@@H]1/C(C)=C/c1csc(C)n1 | > 100 µM | > 100 µM | > 100 µM | > 100 µM | > 100 µM | > 100 µM | > 100 µM | > 100 µM | > 100 µM | – | 0.0432 µM | < 0.0173 µM | < 0.0129 µM | < 0.01 µM | 0.0361 µM | 0.0705 µM | 0.0486 µM | 0.0143 µM | 0.0452 µM
18 | N#Cc1c(-c2ccccc2)/c(=C\Nc2ccc(F)cc2)c(=O)n2c1nc1ccccc12 | – | > 100 µM | > 100 µM | > 100 µM | > 100 µM | > 100 µM | > 100 µM | > 100 µM | 38.5 µM | 68.4 µM | – | – | – | – | – | – | – | – | –
19 | CCOC(=O)c1ccc(NCC#CCN2CCOCC2)cc1 | > 100 µM | > 100 µM | > 100 µM | > 100 µM | > 100 µM | > 100 µM | – | > 100 µM | > 100 µM | > 100 µM | – | – | – | – | – | – | – | – | –
20 | CCOP(=O)(OCC)C(c1ccc(F)cc1)N(C(=O)NC(F)(F)F)c1ccc(OC)cc1 (stereo not drawn) | > 100 µM | > 100 µM | > 100 µM | – | > 100 µM | > 100 µM | > 100 µM | > 100 µM | > 100 µM | > 100 µM | – | – | – | – | – | – | – | – | –
21 | NS(=O)(=O)c1cc(Cl)c(NC(=S)NC(=O)Nc2ccc(Cl)c(Cl)c2)c(Cl)c1 | > 100 µM | > 100 µM | 53.8 µM | > 100 µM | > 100 µM | > 100 µM | > 100 µM | > 100 µM | – | 90.7 µM | – | – | – | – | – | – | – | – | –
22 | CSC(=S)N(C)C | > 100 µM | > 100 µM | > 100 µM | – | > 100 µM | > 100 µM | > 100 µM | > 100 µM | > 100 µM | > 100 µM | – | – | – | – | – | – | – | – | –
23 | O=C1NCC2(CCN(CCCC3(c4ccc(F)cc4)OCCO3)CC2)N1c1ccccc1 | > 100 µM | > 100 µM | – | > 100 µM | > 100 µM | > 100 µM | > 100 µM | > 100 µM | > 100 µM | > 100 µM | – | – | – | – | – | – | – | – | –

Reference: PubChem BioAssay (NCI)
